Assay [1] deals with Plasmodium berghei. As to the kind of experiment: Antimalarial activity against liver stages of Plasmodium berghei […] infected in human Hepa1-6 cells assessed as reduction in liver parasite load at 10 uM/L incubated for 1 hr prior to sporozoite inoculation measured after 46 to 48 hrs by fluorescence microscope. Also on record: scale not given: the % may be the effect or the level left. The assay is classed as functional.

Assay [2] relates to Plasmodium yoelii. As to the kind of experiment: Antimalarial activity against Plasmodium yoelii infected in mouse assessed as protection against parasitic infection at 5 mg/kg, po. In kind it is functional.
Assay [3] concerns Plasmodium yoelii yoelii. As to the kind of experiment: Antimalarial activity against liver stages of Plasmodium yoelii yoelii in mouse hepatocytes assessed as growth inhibition. In kind it is functional, organism-based. As to conditions: Hepatocyte.
Assay [4] has as its system Plasmodium yoelii. As to the kind of experiment: Antimalarial activity against Plasmodium yoelii infected in mouse assessed as protection against parasitic infection at 160 mg/kg, po. In kind it is functional.
Assay [5] concerns Plasmodium yoelii. As to the kind of experiment: Antimalarial activity against Plasmodium yoelii infected in po dosed mouse assessed as minimum dose required to protection against 100% parasitic infection. As to conditions: read-out: MED. In kind it is functional.
The subject of assay [6] is Plasmodium berghei. As to the kind of experiment: Antimalarial activity against Plasmodium berghei ANKA infected in human Huh7 cells after 24 hrs by qRT-PCR. As to conditions: Huh-7, 24 h. The assay is classed as functional, organism-based.
The subject of assay [7] is Plasmodium berghei. As to the kind of experiment: Antimalarial activity against Plasmodium berghei ANKA infected in C57BL/6 mouse assessed as increase in resistance of mouse to cerebral malaria at 10 mg/kg, ip. The assay is classed as functional. As to conditions: route intraperitoneal.
Assay [8] relates to Plasmodium berghei. As to the kind of experiment: Antimalarial activity against Plasmodium berghei infected in […] 1-6 cells assessed as inhibition of host cell sporozoite invasion at 10 uM preincubated for 10 mins measured after 1 hr. The assay is classed as functional. As to conditions: Hepa1-6.
Assay [9] relates to Plasmodium berghei. As to the kind of experiment: Antimalarial activity against liver stages of Plasmodium berghei infected in human HepG2 cells assessed as growth inhibition of hepatic parasite before invasion of hepatocytes incubated for 48 hrs followed by compound wash out measured after 3 days by RT-PCR analysis. The assay is classed as functional, organism-based.
Assay [10] concerns Plasmodium yoelii. As to the kind of experiment: Antimalarial activity against liver stages of Plasmodium yoelii 17XNL expressing GFP infected in human HepG2 cells transfected with CD81 assessed as growth inhibition of hepatic parasite after 40 hrs by flow cytometry. In kind it is functional, organism-based.
The test system of assay [11] is Plasmodium berghei. As to the kind of experiment: Antimalarial activity against liver stages of Plasmodium berghei assessed as human HepG2 cells assessed as inhibition of hepatic parasite growth after invasion of hepatocytes incubated for 48 hrs followed by compound wash out measured after 2 days by RT-PCR analysis. The assay is classed as functional, organism-based.

For assay [12], the system named is Plasmodium falciparum. As to the kind of experiment: Antimalarial activity against liver stages of Plasmodium falciparum NF54 infected in human HepG2-A16 cells expressing CD81 assessed as growth inhibition of hepatic parasite after 5 days by fluorescence microscopy. In kind it is functional, organism-based. As to conditions: NF54, HepG2A16, Liver, 120 h.
The subject of assay [13] is Plasmodium berghei. As to the kind of experiment: Antimalarial activity against liver stages of Plasmodium berghei in human HepG2 cells assessed as inhibition of exoerythrocytic development at 1.85 nM administered 3 hrs after sporozite invasion measured after 48 hrs. The assay is classed as functional.
Assay [14] deals with Plasmodium berghei. As to the kind of experiment: Antimalarial activity against liver stages of Plasmodium berghei assessed as inhibition of cytochrome bc1 complex. The assay is classed as functional, organism-based.
The subject of assay [15] is Plasmodium yoelii. As to the kind of experiment: Antimalarial activity against Plasmodium yoelii infected in CD-1 mouse assessed as efficacy at 160 mg/kg, ip. As to conditions: route intraperitoneal. In kind it is functional.
In assay [16] the test system is Plasmodium yoelii. As to the kind of experiment: Antimalarial activity against Plasmodium yoelii infected in CD-1 mouse assessed as efficacy at 40 mg/kg, ip. As to conditions: route intraperitoneal. In kind it is functional.
For assay [17], the system named is Plasmodium yoelii. As to the kind of experiment: Antimalarial activity against Plasmodium yoelii infected in CD-1 mouse assessed as efficacy at 160 mg/kg, po after 2 hrs. The assay is classed as functional.
Assay [18] deals with Plasmodium yoelii. As to the kind of experiment: Antimalarial activity against Plasmodium yoelii infected in CD-1 mouse assessed as efficacy at 40 mg/kg, po after 2 hrs. In kind it is functional.
For the next assay, the system named is Plasmodium vivax. As to the kind of experiment: Antimalarial activity against Plasmodium vivax assessed as effect on cure rate after 28 days. The assay is classed as functional.
Assay [19] deals with Plasmodium yoelii. As to the kind of experiment: Antimalarial activity against liver stages of Plasmodium yoelii assessed as inhibition of cytochrome bc1 complex. In kind it is functional, organism-based.
The subject of assay [20] is Plasmodium yoelii. As to the kind of experiment: Antimalarial activity against liver stages of Plasmodium yoelii infected in mouse assessed as protection against parasitic infection at 50 mg/kg, po after 7 days. In kind it is functional.
For assay [21], the system named is Plasmodium yoelii. As to the kind of experiment: Antimalarial activity against liver stages of Plasmodium yoelii after 96 hrs. In kind it is functional, organism-based.
Assay [22] deals with Plasmodium yoelii. As to the kind of experiment: Antimalarial activity against liver stages of Plasmodium yoelii after 96 hrs.
Assay [23] relates to Plasmodium berghei. As to the kind of experiment: Antimalarial activity against liver stages of Plasmodium berghei. The assay is classed as functional, organism-based.
Assay [24] deals with Plasmodium berghei. As to the kind of experiment: Antimalarial activity against Plasmodium berghei ANKA expressing GFP infected in C57BL/6 mouse assessed as reduction of liver infection at 200 mg/kg, po incubated for 6 hrs prior to sporozoite inoculation measured after 40 hrs by qRT PCR. On the set-up: scale not given: the % may be the effect or the level left.
The subject of assay [25] is Plasmodium yoelii yoelii. As to the kind of experiment: Antimalarial activity against liver stages of Plasmodium yoelii yoelii 265 BY infected in mouse after 48 hrs by immunofluorescence assay. The assay is classed as functional, organism-based.
Assay [26] relates to Plasmodium falciparum. As to the kind of experiment: Antimalarial activity against liver stages of Plasmodium falciparum NF54 in mouse after 72 to 120 hrs by immunofluorescence assay. In kind it is functional, organism-based.
Assay [27] relates to Plasmodium yoelii. As to the kind of experiment: Antimalarial activity against liver stages of Plasmodium yoelii 17XNL infected in Swiss Webster mouse assessed as reduction in liver parasite load at 25 mg/kg, po co-administered with 12.5 mg/kg ritonavir incubated for 6 hrs prior to sporozoite inoculation measured after 18 hrs. In kind it is functional. Also on record: scale not given: the % may be the effect or the level left.

Assay [28] relates to Plasmodium yoelii. As to the kind of experiment: Antimalarial activity against liver stages of Plasmodium yoelii 17XNL infected in Swiss Webster mouse assessed as reduction in liver parasite load at 100 mg/kg, po co-administered with 50 mg/kg ritonavir incubated for 6 hrs prior to sporozoite inoculation measured after 18 hrs. In kind it is functional. Also on record: scale not given: the % may be the effect or the level left.

The test system of the next assay is Plasmodium cynomolgi. As to the kind of experiment: Antimalarial activity against liver stages of Plasmodium cynomolgi infected in human HepG2 cells assessed as growth inhibition of hepatic parasite after 3 days. In kind it is functional, organism-based. As to conditions: 72 h.
For assay [29], the system named is Plasmodium falciparum. As to the kind of experiment: Antimalarial activity against liver stages of Plasmodium falciparum NF54 infected in human hepatocytes assessed as growth inhibition of hepatic parasite after 5 days by fluorescence microscopy. The assay is classed as functional, organism-based. As to conditions: NF54, Hepatocyte, 120 h.

The structures appear in SMILES notation.

`CC(C)(C)NC(=O)[C@@H]1C[C@@H]2CCCC[C@@H]2CN1C[C@@H](O)[C@H](Cc1ccccc1)NC(=O)[C@H](CC(N)=O)NC(=O)c1ccc2ccccc2n1`: the Activity in the assay with Plasmodium berghei [1] is on record as 55%.
For the compound `CC(C)COC(=O)N/C(=N/C(C)C)NC1=NC(=O)C(=O)N1c1ccc(Cl)c(Cl)c1`, the Activity with Plasmodium yoelii [2] was 100%.
Usually IC50 stands for the concentration at which inhibition is half-maximal. As to `NCCCCN(CCCN)C(=O)CCCCCCCCCCCOCc1ccc2c(c1)[C@@H]1C[C@]3(CCCCO3)NC3=N[C@]4(CCCCO4)C[C@H]2N31`, the IC50 in the assay on Plasmodium yoelii yoelii [3] was found to be 9.2 µM.
`CC(C)COC(=O)/N=C(\NC1=NC(=O)C(=O)N1C(C)C)Nc1ccc(Cl)c(Cl)c1`: the Activity in the assay with Plasmodium yoelii [4] is 100%. Also, the minimal effective dose with Plasmodium yoelii [5] amounted to 40 mg/kg.
`C[C@H](NC(=O)[C@@H](O)c1cc(F)cc(F)c1)C(=O)N[C@@H]1C(=O)N(C)c2ccccc2-c2ccccc21` yielded an IC50 with Plasmodium berghei [6] of 80 µM. Moreover, in the assay with Plasmodium berghei [7], the Activity is 55%.
By inhibition is commonly meant how much of the control response was suppressed. Take `C=CCS[S+]([O-])CC=C` (configuration not stated) [ALLICIN]: in the assay on Plasmodium berghei [8], the inhibition at 10 µM came out at 37%. For the same compound, the IC50 is 6.8 µM in the assay with Plasmodium berghei [9], 40 µM in the assay with Plasmodium yoelii [10] and 39.4 µM in the assay on Plasmodium berghei [11].
Broadly, the inhibition in vivo is the drop in the measured response relative to a control, in per cent. For `O=C1C(O)=C([C@H]2CC[C@H](c3ccc(Cl)cc3)CC2)C(=O)c2ccccc21` [ATOVAQUONE], the IC50 in the assay on Plasmodium falciparum [12] was 0.00395 µM; in the assay on Plasmodium berghei [14] it was 0.0197 µM. The inhibition in vivo at 0.00185 µM with Plasmodium berghei [13] turned out to be 50%.
For the compound `CC[C@H]1OC(=O)[C@H](C)[C@@H](O[C@H]2C[C@@](C)(OC)[C@@H](O)[C@H](C)O2)[C@H](C)[C@@H](O[C@@H]2O[C@H](C)C[C@H](N(C)C)[C@H]2O)[C@](C)(O)C[C@@H](C)CN(C)[C@H](C)[C@@H](O)[C@]1(C)O` [AZITHROMYCIN], the Efficacy stood at 100% in the assay with Plasmodium yoelii [15], 80% with Plasmodium yoelii [16], 100% in the assay on Plasmodium yoelii [17] and 40% with Plasmodium yoelii [18]. Moreover, the Activity with Plasmodium vivax is 58%.
As for `CCCCCCCCCCOc1cc2c(O)c(C(=O)OCC)cnc2cc1OCC` [DECOQUINATE], in the assay with Plasmodium yoelii [19], the IC50 was 0.000177 µM. The Activity with Plasmodium yoelii [20] amounted to 80%.
`C[C@@H](CN1CC(=O)NC(=O)C1)N1CC(=O)NC(=O)C1` [DEXRAZOXANE]: the INH in the assay with Plasmodium yoelii [21] and in the assay with Plasmodium yoelii [22] was 50 µM throughout.
`O=c1c(-c2ccc(O)cc2)coc2cc(O)cc(O)c12` [GENISTEIN] showed an IC50 in the assay with Plasmodium berghei [23] of 20 µM. In addition, the Activity in the assay with Plasmodium berghei [24] worked out at 64%.
Regarding `Cc1c(F)c(N2CCNC(C)C2)cc2c1c(=O)c(C(=O)O)cn2C1CC1` (configuration not stated) [GREPAFLOXACIN], the IC50 in the assay on Plasmodium yoelii yoelii [25] and in the assay with Plasmodium falciparum [26] was 10 µM in each case.
As for `Cc1cccc(C)c1OCC(=O)N[C@@H](Cc1ccccc1)[C@@H](O)C[C@H](Cc1ccccc1)NC(=O)[C@H](C(C)C)N1CCCNC1=O` [LOPINAVIR], the Activity with Plasmodium yoelii [27] was found to be 45%; with Plasmodium yoelii [28], 93%; with Plasmodium berghei [1], 38%.
Regarding `CCc1nc(N)nc(N)c1-c1ccc(Cl)cc1` [PYRIMETHAMINE], the IC50 in the assay with Plasmodium cynomolgi came out at 1.03 µM.
As to `COC1=C2[C@H]3NCC[C@]2(C[C@H](O)[C@@H]1O)c1c(ccc(OC)c1O)[C@H]3O` [TAZOPSINE], the IC50 in the assay on Plasmodium falciparum [29] is 4.2 µM.
